Laboratory results as given in the supplement of paper PMC8253809.

Columns and labels:
DIPGX37 [1] = H3.3 K27M diffuse intrinsic pontine glioma line; assay: EC50 (inflection of fitted growth-inhibition curve) (log10 M)
Summary of the method: (§1)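 Compounds were delivered by pin tool as a 10-point threefold dilution series with a mean top concentration of 35 μM, in triplicate, to patient-derived pHGG/DIPG cell lines and astrocyte controls growing on 1% Geltrex-coated 384-well plates. Incubation lasted 7 days, or 3 days for iAstro, at 37 °C with 5% CO2. EC50 and maximal response (yFin) come from the three- or four-parameter log-logistic fit with the lowest AICc, applied to pooled, log2-transformed CellTiter-Glo luminescence normalised per plate to % activity between solvent (negative) and positive control wells.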

HGGX39 [2] = paediatric high-grade glioma line; assay: as above
Summary of the method: as §1

DIPGX7 [3] = H3.3 K27M diffuse intrinsic pontine glioma line; assay: as above
Summary of the method: as §1

SUDIPGXXI [4] = diffuse intrinsic pontine glioma line; assay: as above
Summary of the method: as §1

DIPGX29 [5] = H3.3 K27M diffuse intrinsic pontine glioma line; assay: as above
Summary of the method: as §1

HGGX6 [6] = H3.3 G34R paediatric high-grade glioma line; assay: as above
Summary of the method: as §1

HGGX42 [7] = H3.3 G34R paediatric high-grade glioma line; assay: as above
Summary of the method: as §1

SUDIPGIV [8] = diffuse intrinsic pontine glioma line; assay: as above
Summary of the method: as §1

DIPGX37 [9] = assay: maximal growth inhibition (yFin) relative to DMSO / staurosporine; higher = more efficacious
Summary of the method: as §1

HGGX39 [10] = assay: as above
Summary of the method: as §1

DIPGX7 [11] = assay: as above
Summary of the method: as §1

SUDIPGXXI [12] = assay: as above
Summary of the method: as §1

DIPGX29 [13] = assay: as above
Summary of the method: as §1

HGGX6 [14] = assay: as above
Summary of the method: as §1

HGGX42 [15] = assay: as above
Summary of the method: as §1

SUDIPGIV [16] = assay: as above
Summary of the method: as §1

DIPGX37 [17] = assay: area under dose-response curve of % growth inhibition (log2 RLU vs DMSO / staurosporine), 1e-11 to 1e-4 M (% x log10 M); higher = more growth inhibition
Summary of the method: (§2)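 Area under the curve was derived with the trapezoid rule from a fitted log-logistic curve, switching to a smoothing spline if the sigmoid fit failed. It rested on per-plate % activity between solvent and positive controls, calculated from log2-transformed CellTiter-Glo luminescence after 7 days of exposure (3 days for iAstro) at 37 °C, 5% CO2. Patient-derived pHGG/DIPG lines and astrocytes on 1% Geltrex-coated 384-well plates received a 10-point threefold dilution series, mean top concentration 35 μM, in triplicate.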

HGGX39 [18] = assay: as above
Summary of the method: as §2

SUDIPGXVII [19] = diffuse intrinsic pontine glioma line; assay: as above
Summary of the method: as §2

SUDIPGXIII = diffuse intrinsic pontine glioma line; assay: as above
Summary of the method: as §2

iAstro [20] = astrocyte control; assay: as above
Summary of the method: as §2

DIPGX7 [21] = assay: as above
Summary of the method: as §2

SUDIPGXXI [22] = assay: as above
Summary of the method: as §2

SUDIPGXIX [23] = diffuse intrinsic pontine glioma line; assay: as above
Summary of the method: as §2

DIPGX29 [24] = assay: as above
Summary of the method: as §2

HGGX6 [25] = assay: as above
Summary of the method: as §2

SUDIPGVI = diffuse intrinsic pontine glioma line; assay: as above
Summary of the method: as §2

DIPGX9 [26] = diffuse intrinsic pontine glioma line; assay: as above
Summary of the method: as §2

HGGX42 [27] = assay: as above
Summary of the method: as §2

HGGX2 [28] = paediatric high-grade glioma line; assay: as above
Summary of the method: as §2

HABS [29] = astrocyte control; assay: as above
Summary of the method: as §2

SUDIPGIV [30] = assay: as above
Summary of the method: as §2

iAstro [31] = assay: EC50 (inflection of fitted growth-inhibition curve) (log10 M)
Summary of the method: as §1

SUDIPGXIX [32] = assay: as above
Summary of the method: as §1

DIPGX9 [33] = assay: as above
Summary of the method: as §1

HGGX2 [34] = assay: as above
Summary of the method: as §1

iAstro [35] = assay: maximal growth inhibition (yFin) relative to DMSO / staurosporine; higher = more efficacious
Summary of the method: as §1

SUDIPGXIX [36] = assay: as above
Summary of the method: as §1

DIPGX9 [37] = assay: as above
Summary of the method: as §1

HGGX2 [38] = assay: as above
Summary of the method: as §1

SUDIPGXVII [39] = assay: EC50 (inflection of fitted growth-inhibition curve) (log10 M)
Summary of the method: as §1

HABS [40] = assay: as above
Summary of the method: as §1

SUDIPGXVII [41] = assay: maximal growth inhibition (yFin) relative to DMSO / staurosporine; higher = more efficacious
Summary of the method: as §1

HABS [42] = assay: as above
Summary of the method: as §1

## CC(C(O)c1ccc(O)cc1)N1CCC(Cc2ccccc2)CC1 (stereo unspecified) [IFENPRODIL]
DIPGX37 [1]
  EC50 (log10 M): -4.82
HGGX39 [2]
  EC50 (log10 M): -4.86
DIPGX7 [3]
  EC50 (log10 M): -4.83
SUDIPGXXI [4]
  EC50 (log10 M): -4.85
DIPGX29 [5]
  EC50 (log10 M): -4.85
HGGX6 [6]
  EC50 (log10 M): -4.95
HGGX42 [7]
  EC50 (log10 M): -5.06
SUDIPGIV [8]
  EC50 (log10 M): -4.66
DIPGX37 [9]
  maximal growth inhibition: 59.3%
HGGX39 [10]
  maximal growth inhibition: 36.6%
DIPGX7 [11]
  maximal growth inhibition: 45.7%
SUDIPGXXI [12]
  maximal growth inhibition: 75.3%
DIPGX29 [13]
  maximal growth inhibition: 29.5%
HGGX6 [14]
  maximal growth inhibition: 20.6%
HGGX42 [15]
  maximal growth inhibition: 61.8%
SUDIPGIV [16]
  maximal growth inhibition: 45.1%
DIPGX37 [17]
  area under dose-response curve: 48.4
HGGX39 [18]
  area under dose-response curve: 44.1
SUDIPGXVII [19]
  area under dose-response curve: 17.3
SUDIPGXIII
  area under dose-response curve: 27.3
iAstro [20]
  area under dose-response curve: 13.3
DIPGX7 [21]
  area under dose-response curve: 57.3
SUDIPGXXI [22]
  area under dose-response curve: 85.1
SUDIPGXIX [23]
  area under dose-response curve: 3.16
DIPGX29 [24]
  area under dose-response curve: 39.3
HGGX6 [25]
  area under dose-response curve: 25.9
SUDIPGVI
  area under dose-response curve: 18.5
DIPGX9 [26]
  area under dose-response curve: 18.8
HGGX42 [27]
  area under dose-response curve: 66.8
HGGX2 [28]
  area under dose-response curve: 8.88
HABS [29]
  area under dose-response curve: 0.152
SUDIPGIV [30]
  area under dose-response curve: 29.8

## CC(C)N(CCCNC(=O)Nc1ccc(C(C)(C)C)cc1)C[C@H]1O[C@@H](n2cc(Br)c3c(N)ncnc32)[C@H](O)[C@@H]1O [SGC0946]
DIPGX37 [1]
  EC50 (log10 M): -4.52
iAstro [31]
  EC50 (log10 M): -4.87
DIPGX7 [3]
  EC50 (log10 M): -4.86
SUDIPGXXI [4]
  EC50 (log10 M): -4.77
SUDIPGXIX [32]
  EC50 (log10 M): -4.54
DIPGX29 [5]
  EC50 (log10 M): -4.49
HGGX6 [6]
  EC50 (log10 M): -4.77
DIPGX9 [33]
  EC50 (log10 M): -4.79
HGGX42 [7]
  EC50 (log10 M): -4.53
HGGX2 [34]
  EC50 (log10 M): -4.58
DIPGX37 [9]
  maximal growth inhibition: 65.1%
iAstro [35]
  maximal growth inhibition: 25.3%
DIPGX7 [11]
  maximal growth inhibition: 35.5%
SUDIPGXXI [12]
  maximal growth inhibition: 107%
SUDIPGXIX [36]
  maximal growth inhibition: 107%
DIPGX29 [13]
  maximal growth inhibition: 100%
HGGX6 [14]
  maximal growth inhibition: 43%
DIPGX9 [37]
  maximal growth inhibition: 30.4%
HGGX42 [15]
  maximal growth inhibition: 102%
HGGX2 [38]
  maximal growth inhibition: 100%
DIPGX37 [17]
  area under dose-response curve: 56.4
HGGX39 [18]
  area under dose-response curve: 14.8
SUDIPGXVII [19]
  area under dose-response curve: 27.7
SUDIPGXIII
  area under dose-response curve: 40.5
iAstro [20]
  area under dose-response curve: 21.5
DIPGX7 [21]
  area under dose-response curve: 54
SUDIPGXXI [22]
  area under dose-response curve: 82.6
SUDIPGXIX [23]
  area under dose-response curve: 57.8
DIPGX29 [24]
  area under dose-response curve: 58.4
HGGX6 [25]
  area under dose-response curve: 33.2
SUDIPGVI
  area under dose-response curve: 20
DIPGX9 [26]
  area under dose-response curve: 24.1
HGGX42 [27]
  area under dose-response curve: 66.7
HGGX2 [28]
  area under dose-response curve: 58.5
HABS [29]
  area under dose-response curve: 8.16
SUDIPGIV [30]
  area under dose-response curve: 11.6

## CO[C@H]1C[C@@H]2CC[C@@H](C)[C@@](O)(O2)C(=O)C(=O)N2CCCC[C@H]2C(=O)O[C@H]([C@H](C)C[C@@H]2CC[C@@H](OC(=O)C(C)(CO)CO)[C@H](OC)C2)CC(=O)[C@H](C)/C=C(\C)[C@@H](O)[C@@H](OC)C(=O)[C@H](C)C[C@H](C)/C=C/C=C/C=C/1C [TEMSIROLIMUS]
DIPGX37 [1]
  EC50 (log10 M): -4.85
SUDIPGXVII [39]
  EC50 (log10 M): -4.96
iAstro [31]
  EC50 (log10 M): -4.98
DIPGX7 [3]
  EC50 (log10 M): -4.94
SUDIPGXXI [4]
  EC50 (log10 M): -5.31
SUDIPGXIX [32]
  EC50 (log10 M): -4.89
DIPGX29 [5]
  EC50 (log10 M): -4.69
HGGX6 [6]
  EC50 (log10 M): -4.79
HGGX2 [34]
  EC50 (log10 M): -4.9
HABS [40]
  EC50 (log10 M): -4.85
DIPGX37 [9]
  maximal growth inhibition: 89.6%
SUDIPGXVII [41]
  maximal growth inhibition: 24.2%
iAstro [35]
  maximal growth inhibition: 94.3%
DIPGX7 [11]
  maximal growth inhibition: 63.7%
SUDIPGXXI [12]
  maximal growth inhibition: 124%
SUDIPGXIX [36]
  maximal growth inhibition: 96.2%
DIPGX29 [13]
  maximal growth inhibition: 116%
HGGX6 [14]
  maximal growth inhibition: 58%
HGGX2 [38]
  maximal growth inhibition: 77.4%
HABS [42]
  maximal growth inhibition: 104%
DIPGX37 [17]
  area under dose-response curve: 123
HGGX39 [18]
  area under dose-response curve: 91.8
SUDIPGXVII [19]
  area under dose-response curve: 40.1
SUDIPGXIII
  area under dose-response curve: 53.9
iAstro [20]
  area under dose-response curve: 101
DIPGX7 [21]
  area under dose-response curve: 71
SUDIPGXXI [22]
  area under dose-response curve: 201
SUDIPGXIX [23]
  area under dose-response curve: 116
DIPGX29 [24]
  area under dose-response curve: 113
HGGX6 [25]
  area under dose-response curve: 77.9
SUDIPGVI
  area under dose-response curve: 89
DIPGX9 [26]
  area under dose-response curve: 198
HGGX42 [27]
  area under dose-response curve: 121
HGGX2 [28]
  area under dose-response curve: 86.5
HABS [29]
  area under dose-response curve: 88.3
SUDIPGIV [30]
  area under dose-response curve: 83.2

## NC(=O)Nc1sc(-c2ccc(F)cc2)cc1C(N)=O [TPCA-1]
DIPGX37 [1]
  EC50 (log10 M): -4.8
HGGX39 [2]
  EC50 (log10 M): -4.79
SUDIPGXVII [39]
  EC50 (log10 M): -4.74
iAstro [31]
  EC50 (log10 M): -4.76
SUDIPGXXI [4]
  EC50 (log10 M): -4.81
SUDIPGXIX [32]
  EC50 (log10 M): -4.66
DIPGX29 [5]
  EC50 (log10 M): -4.75
HGGX6 [6]
  EC50 (log10 M): -5.19
DIPGX9 [33]
  EC50 (log10 M): -4.8
HGGX42 [7]
  EC50 (log10 M): -5.23
HGGX2 [34]
  EC50 (log10 M): -4.67
HABS [40]
  EC50 (log10 M): -4.95
SUDIPGIV [8]
  EC50 (log10 M): -4.55
DIPGX37 [9]
  maximal growth inhibition: 38.5%
HGGX39 [10]
  maximal growth inhibition: 27.7%
SUDIPGXVII [41]
  maximal growth inhibition: 20.7%
iAstro [35]
  maximal growth inhibition: 24.4%
SUDIPGXXI [12]
  maximal growth inhibition: 122%
SUDIPGXIX [36]
  maximal growth inhibition: 58.5%
DIPGX29 [13]
  maximal growth inhibition: 35.9%
HGGX6 [14]
  maximal growth inhibition: 22.5%
DIPGX9 [37]
  maximal growth inhibition: 36.9%
HGGX42 [15]
  maximal growth inhibition: 24.8%
HGGX2 [38]
  maximal growth inhibition: 36.3%
HABS [42]
  maximal growth inhibition: 33.8%
SUDIPGIV [16]
  maximal growth inhibition: 21.9%
DIPGX37 [17]
  area under dose-response curve: 30.6
HGGX39 [18]
  area under dose-response curve: 21.9
SUDIPGXVII [19]
  area under dose-response curve: 15.2
SUDIPGXIII
  area under dose-response curve: 3.37
iAstro [20]
  area under dose-response curve: 18.2
DIPGX7 [21]
  area under dose-response curve: 11.3
SUDIPGXXI [22]
  area under dose-response curve: 99.3
SUDIPGXIX [23]
  area under dose-response curve: 39.2
DIPGX29 [24]
  area under dose-response curve: 26.8
HGGX6 [25]
  area under dose-response curve: 26.9
SUDIPGVI
  area under dose-response curve: 6.26
DIPGX9 [26]
  area under dose-response curve: 29.4
HGGX42 [27]
  area under dose-response curve: 30.8
HGGX2 [28]
  area under dose-response curve: 23.3
HABS [29]
  area under dose-response curve: 32.4
SUDIPGIV [30]
  area under dose-response curve: 12
